Measured values published in paper PMC6151550, “Inhibitory Effect of Selaginellins from Selaginella tamariscina (Beauv.) Spring against Cytochrome P450 and Uridine 5′-Diphosphoglucuronosyltransferase Isoforms on Human Liver Microsomes” (Molecules : A Journal of Synthetic Chemistry and Natural …, 2017).

Key:
Type in all cases: in vitro ADME
CYP2B6 = molecular target: T1, CYP2B6 (Homo sapiens, UniProt P20813); experiment: CYP2B6 inhibition (bupropion 4-hydroxylase) in human liver microsomes, substrate cocktail LC-MS/MS
T1 construct: the incubation mixtures containing pooled HLMs (0.25 mg/mL, H2630, Xenotech); tissue Xenotech H2630; host or cells: pooled human liver microsomes
T1 sequence (P20813 1-491): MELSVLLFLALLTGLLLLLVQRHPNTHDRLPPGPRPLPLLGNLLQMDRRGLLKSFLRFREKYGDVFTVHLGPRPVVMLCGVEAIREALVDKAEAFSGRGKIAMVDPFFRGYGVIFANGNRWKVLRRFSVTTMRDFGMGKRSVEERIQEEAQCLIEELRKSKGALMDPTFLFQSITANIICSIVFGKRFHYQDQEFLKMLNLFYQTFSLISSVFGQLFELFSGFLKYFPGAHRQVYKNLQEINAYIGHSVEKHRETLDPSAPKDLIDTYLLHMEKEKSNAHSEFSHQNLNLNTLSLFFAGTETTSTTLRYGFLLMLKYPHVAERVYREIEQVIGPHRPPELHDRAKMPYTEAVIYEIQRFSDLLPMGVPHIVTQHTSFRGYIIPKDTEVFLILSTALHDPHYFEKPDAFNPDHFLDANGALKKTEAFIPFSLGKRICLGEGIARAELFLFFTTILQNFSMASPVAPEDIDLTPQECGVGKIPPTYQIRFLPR
Protocol: (§1) The inhibitory effects of two selaginellins on the metabolism of ten P450 probe substrates were evaluated using previously reported method with minor modification. Phenacetin O-deethylase, coumarin 7-hydroxylase, bupropion 4-hydroxylase, amodiaquine N-deethylase, tolbutamide 4-hydroxylase, omeprazole 5-hydroxylase, dextromethorphan O-demethylase, chlorzoxazone 6-hydroxylase and midazolam 1′-hydroxylase activities were determined as probe activities for CYP1A2, CYP2A6, CYP2B6, CYP2C8, CYP2C9, CYP2C19, CYP2D6, CYP2E1 and […], respectively, using substrate cocktail incubation and tandem mass spectrometry (Table 2). Selaginellins were dissolved in methanol. The final concentrations of organic solvent (methanol) for the cocktail incubation conditions in all experiments were 1.0% (v/v). In brief, the incubation mixtures containing pooled HLMs (0.25 mg/mL, H2630, Xenotech), P450 probe substrate cocktail, and inhibitor (0, 0.5, 2, 5, 20 and 50 μM) were preincubated at 37 °C for 5 min. […] After mixing and centrifugation, aliquots were analyzed by liquid chromatography-tandem mass spectrometry (LC-MS/MS) as previous described. The CYP2J2 inhibitory effects of two selaginellins were also evaluated in pooled HLMs using previously reported method. […]

UGT1A9 = molecular target: T2, UGT1A9 (Homo sapiens, UniProt O60656); experiment: UGT1A9 inhibition (mycophenolic acid glucuronidation) in human liver microsomes, cocktail LC-MS/MS
T2 construct: from tissue; host or cells: human liver microsomes
T2 sequence (O60656 26-530): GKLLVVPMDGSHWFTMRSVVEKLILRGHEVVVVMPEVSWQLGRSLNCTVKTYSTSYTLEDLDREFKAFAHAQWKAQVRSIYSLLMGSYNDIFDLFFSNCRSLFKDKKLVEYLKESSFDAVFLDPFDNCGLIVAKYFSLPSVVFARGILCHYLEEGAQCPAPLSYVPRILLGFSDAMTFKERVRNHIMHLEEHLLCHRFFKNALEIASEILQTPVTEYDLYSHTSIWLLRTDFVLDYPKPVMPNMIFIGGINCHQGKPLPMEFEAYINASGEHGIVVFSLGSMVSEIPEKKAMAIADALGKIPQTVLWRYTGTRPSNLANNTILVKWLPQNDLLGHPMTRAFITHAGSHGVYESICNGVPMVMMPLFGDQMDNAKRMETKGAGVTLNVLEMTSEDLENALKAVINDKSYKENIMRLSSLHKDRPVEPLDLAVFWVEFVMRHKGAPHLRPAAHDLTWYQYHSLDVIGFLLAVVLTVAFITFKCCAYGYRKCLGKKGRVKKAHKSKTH
Protocol: (§2) The inhibitory effects of two selaginellins on the metabolism of six UGT probe substrates were evaluated using previously reported method with minor modification. In brief, HLMs (0.25 mg/mL) were activated by incubation in the presence of alamethicin (25 μg/mL) for 15 min on ice. After the addition of UGT isoform-selective substrates and selaginellins (0, 0.5, 2, 5, 20 and 50 μM) the final concentrations of organic solvent (methanol) for the cocktail incubation conditions were 1.0% (v/v). The incubation reaction mixtures were pre-incubated for 5 min. The reaction was initiated by the addition of 5 mM UDPGA and further incubated for 60 min. All reactions were terminated by adding ice-cold acetonitrile containing estrone glucuronide (IS). After mixing and centrifugation, aliquots were injected into a LC-MS/MS as described previously (Table 2). All microsomal incubations were performed in triplicate.
(§3) The IC50 values (concentration of the inhibitor causing 50% inhibition of the original enzyme activity) were calculated using WinNonlin software (Pharsight, Mountain View, CA, USA): percentage of control activity = 100 × [1 − (I/(I + IC50))], where I is the inhibitor concentration, and IC50 is the inflection point on the curve.

UGT1A6 = molecular target: T3, UGT1A6 (Homo sapiens, UniProt P19224); experiment: UGT1A6 inhibition (N-acetylserotonin glucuronidation) in human liver microsomes, cocktail LC-MS/MS
T3 construct: from tissue; host or cells: human liver microsomes
T3 sequence (P19224 27-532): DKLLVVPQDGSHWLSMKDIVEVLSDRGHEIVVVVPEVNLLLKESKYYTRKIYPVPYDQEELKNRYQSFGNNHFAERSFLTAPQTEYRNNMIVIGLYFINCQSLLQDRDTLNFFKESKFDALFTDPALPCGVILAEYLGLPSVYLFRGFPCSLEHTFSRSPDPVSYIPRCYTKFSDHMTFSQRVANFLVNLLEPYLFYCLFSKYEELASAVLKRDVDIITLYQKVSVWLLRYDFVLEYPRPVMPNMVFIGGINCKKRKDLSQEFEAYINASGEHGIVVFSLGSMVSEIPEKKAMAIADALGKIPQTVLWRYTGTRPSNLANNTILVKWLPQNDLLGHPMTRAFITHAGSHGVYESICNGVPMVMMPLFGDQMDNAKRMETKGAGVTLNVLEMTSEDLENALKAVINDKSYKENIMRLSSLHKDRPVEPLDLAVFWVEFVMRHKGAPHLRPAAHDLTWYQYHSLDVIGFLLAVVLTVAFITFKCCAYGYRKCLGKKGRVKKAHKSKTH
Protocol: as §2, §3

CYP2D6 = molecular target: T4, CYP2D6 (Homo sapiens, UniProt P10635); experiment: CYP2D6 inhibition (dextromethorphan O-demethylase) in human liver microsomes, substrate cocktail LC-MS/MS
T4 construct: the incubation mixtures containing pooled HLMs (0.25 mg/mL, H2630, Xenotech); tissue Xenotech H2630; host or cells: pooled human liver microsomes
T4 sequence (P10635 whole entry): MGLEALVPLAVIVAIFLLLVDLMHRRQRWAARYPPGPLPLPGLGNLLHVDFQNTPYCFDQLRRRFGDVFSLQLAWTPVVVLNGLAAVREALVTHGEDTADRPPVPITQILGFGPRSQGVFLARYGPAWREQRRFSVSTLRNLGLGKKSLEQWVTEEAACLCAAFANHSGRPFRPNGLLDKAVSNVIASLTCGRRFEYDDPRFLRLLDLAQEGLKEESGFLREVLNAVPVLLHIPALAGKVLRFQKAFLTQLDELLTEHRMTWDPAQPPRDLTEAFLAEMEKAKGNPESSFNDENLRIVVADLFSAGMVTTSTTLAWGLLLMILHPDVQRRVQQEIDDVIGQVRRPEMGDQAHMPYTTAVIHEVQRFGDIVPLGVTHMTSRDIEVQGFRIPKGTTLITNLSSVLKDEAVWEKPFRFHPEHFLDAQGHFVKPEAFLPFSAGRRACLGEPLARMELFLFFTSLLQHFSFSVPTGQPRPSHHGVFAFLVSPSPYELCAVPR
Protocol: as §1

SMILES: COc1ccc(C(=C2C=CC(=O)C=C2)c2c(-c3ccc(O)cc3)ccc(CO)c2C#Cc2ccc(O)cc2)cc1 [Selaginellin M]
- IC50 (CYP2B6): 11.3 µM
- IC50 (UGT1A9): 6.5 µM
- IC50 (UGT1A6): 36.5 µM
- IC50 (CYP2D6): 6.8 µM

SMILES: O=C1C=CC(=C(c2ccc(O)cc2)c2c(-c3ccc(O)cc3)ccc(CO)c2C#Cc2ccc(O)cc2)C=C1 [Selaginellin]
- IC50 (CYP2B6): 10.7 µM
- IC50 (UGT1A9): 8.7 µM
- IC50 (UGT1A6): 25.3 µM
- IC50 (CYP2D6): 5.8 µM
